Patent US20260317320A1, “C5AR1 ANTAGONISTS AND USES THEREOF” (Vanqua Bio, Inc., priority 2022, published 2026)
Where two headings read alike, the source gives them in different places.

Assays:
[1] = biological target: T1, complement C5a receptor 1 (C5aR1) (Homo sapiens, UniProt P21730); assay: β-arrestin recruitment via C5aR1 activation in live CHO-K1 cells (PathHunter), antagonist mode; type: cell-based; conditions: antagonist mode; recombinant hC5a (EC90) as competing natural agonist; live CHO-K1 cells; read-out: [Antagonist] B-arrestin2 recruitment: Average IC50
T1 construct: β-galactosidase fragment (PathHunter enzyme complementation); host or cells: CHO-K1 (PathHunter CHO-K1 C5aR1 β-arrestin cell line)
T1 sequence (P21730 1-350): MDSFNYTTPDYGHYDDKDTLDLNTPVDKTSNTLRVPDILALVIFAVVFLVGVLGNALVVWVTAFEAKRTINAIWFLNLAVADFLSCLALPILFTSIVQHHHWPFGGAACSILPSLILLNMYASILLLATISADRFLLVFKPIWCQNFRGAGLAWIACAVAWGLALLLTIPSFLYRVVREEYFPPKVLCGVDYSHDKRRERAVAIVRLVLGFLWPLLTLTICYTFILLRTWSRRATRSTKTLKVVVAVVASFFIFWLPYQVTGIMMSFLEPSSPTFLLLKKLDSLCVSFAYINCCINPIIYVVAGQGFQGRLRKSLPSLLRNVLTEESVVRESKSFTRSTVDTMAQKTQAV
Method: (§1) Exemplary compounds were evaluated for classical GPCR β-arrestin recruitment via complement C5a receptor 1 (C5aR1) activation in live CHO-K1 cells. This cell line expresses two fragments of the […] protein coupled to β-arrestin and C5aR1. Complementation of the two fragments allows for the assessment of both C5aR1 agonism and antagonism. Recombinant hC5a (EC90) was used as the competing natural agonist against disclosed compounds (more information on the expanded protocol and cell line can be found on the manufacturer's website: PathHunter® CHO-K1 C5aR1 β-arrestin cell line, DiscoverX, Catalog No. 93-0557C2). […] IC50 ranges: A: IC50≤500 nM; B: 500 nM<IC50≤5 uM; C: 5 uM<IC50≤100 uM; D: IC50>100 uM.

[2] = biological target: T1, complement C5a receptor 1 (C5aR1); assay: β-arrestin recruitment via C5aR1 activation in live CHO-K1 cells (PathHunter), agonist mode; type: cell-based
Method: as §1

Row | SMILES | IC50 [1] [µM] | [Agonist] B-arrestin2 recruitment: Average EC50 (nM) [2] | [Agonist] B-arrestin2 recruitment: Average EC50 (nM) ([2]; at 10 μM)
1 | Cc1cccc(F)c1N1CCC(c2cc3nccnc3n([C@@H]3CCCc4nccnc43)c2=O)CC1 [43a, (R)-7-(1-(2-Fluoro-6-methylphenyl)piperidin-4-yl)-5-(5,6,7,8-tetrahydroquinoxalin-5-yl)pyrido[2,3-b]pyrazin-6(5H)-one] | 0.5 to 5 | Non-Active | –
2 | Cc1cccc(F)c1N1CCC(c2cc3nccnc3n([C@H]3CCCc4nccnc43)c2=O)CC1 [43b, (S)-7-(1-(2-Fluoro-6-methylphenyl)piperidin-4-yl)-5-(5,6,7,8-tetrahydroquinoxalin-5-yl)pyrido[2,3-b]pyrazin-6(5H)-one] | 0.5 to 5 | Non-Active | –
3 | Cc1cccc(F)c1N1CCC(c2cc3nccnc3n([C@@H]3CCCc4ncccc43)c2=O)CC1 [49a, (R)-7-(1-(2-Fluoro-6-methylphenyl)piperidin-4-yl)-5-(5,6,7,8-tetrahydroquinolin-5-yl)pyrido[2,3-b]pyrazin-6(5H)-one] | 5 to 100 | Non-Active | –
4 | Cc1cccc(F)c1N1CCC(c2cc3nccnc3n([C@H]3CCCc4ncccc43)c2=O)CC1 [49b, (S)-7-(1-(2-Fluoro-6-methylphenyl)piperidin-4-yl)-5-(5,6,7,8-tetrahydroquinolin-5-yl)pyrido[2,3-b]pyrazin-6(5H)-one] | 0.5 to 5 | Non-Active | –
5 | Cc1cccc(F)c1N1CCC(c2cc3nccnc3n([C@@H]3CCCc4ccccc43)c2=O)CC1 [53a, (R)-7-(1-(2-Fluoro-6-methylphenyl)piperidin-4-yl)-5-(1,2,3,4-tetrahydronaphthalen-1-yl)pyrido[2,3-b]pyrazin-6(5H)-one] | 5 to 100 | Non-Active | –
6 | Cc1cccc(F)c1N1CCC(c2cc3nccnc3n([C@H]3CCCc4ccccc43)c2=O)CC1 [53b, (S)-7-(1-(2-Fluoro-6-methylphenyl)piperidin-4-yl)-5-(1,2,3,4-tetrahydronaphthalen-1-yl)pyrido[2,3-b]pyrazin-6(5H)-one] | 0.5 to 5 | Non-Active | –
7 | Cc1cnc2cc(C3CCN(c4c(C)cccc4F)CC3)c(=O)n([C@H]3CCCc4nccnc43)c2n1 [61a, (S)-7-(1-(2-Fluoro-6-methylphenyl)piperidin-4-yl)-3-methyl-5-(5,6,7,8-tetrahydroquinoxalin-5-yl) pyrido[2,3-b]pyrazin-6(5H)-one] | 0.5 to 5 | Non-Active | –
8 | Cc1cnc2cc(C3CCN(c4c(C)cccc4F)CC3)c(=O)n([C@@H]3CCCc4nccnc43)c2n1 [61b, (R)-7-(1-(2-fluoro-6-methylphenyl)piperidin-4-yl)-3-methyl-5-(5,6,7,8-tetrahydroquinoxalin-5-yl)pyrido[2,3-b]pyrazin-6(5H)-one] | < 0.5 | Non-Active | –
9 | Cc1cnc2cc([C@H]3CC[C@@H](c4c(C)ccnc4F)CC3)c(=O)n(Cc3nccnc3C)c2n1 [135A, 7-((1s,4s)-4-(2-Fluoro-4-methylpyridin-3-yl)cyclohexyl)-3-methyl-5-((3-methylpyrazin-2-yl)methyl)pyrido[2,3-b]pyrazin-6(5H)-one] | 5 to 100 | – | Non-Active at 10 μM
10 | Cc1cnc2cc([C@H]3CC[C@H](c4c(C)ccnc4F)CC3)c(=O)n(Cc3nccnc3C)c2n1 [135B, 7-((1r,4r)-4-(2-Fluoro-4-methylpyridin-3-yl)cyclohexyl)-3-methyl-5-((3-methylpyrazin-2-yl)methyl)pyrido[2,3-b]pyrazin-6(5H)-one] | 5 to 100 | – | Non-Active at 10 μM
11 | Cc1cnc2cc([C@H]3CC[C@@H](c4c(C)cccc4F)CC3)c(=O)n(Cc3nccnc3C)c2n1 [137A, (S)-7-((1s,4s)-4-(2-Fluoro-6-methylphenyl)cyclohexyl)-3-methyl-5-((3-methylpyrazin-2-yl)methyl)pyrido[2,3-b]pyrazin-6(5H)-one] | 5 to 100 | Non-Active | –
12 | Cc1cnc2cc([C@H]3CC[C@H](c4c(C)cccc4F)CC3)c(=O)n(Cc3nccnc3C)c2n1 [137B, (R)-7-((1r,4r)-4-(2-Fluoro-6-methylphenyl)cyclohexyl)-3-methyl-5-((3-methylpyrazin-2-yl)methyl)pyrido[2,3-b]pyrazin-6(5H)-one] | < 0.5 | – | Non-Active at 10 μM
13 | Cc1ccc2nc(C3CCN(c4c(C)cccc4F)CC3)c(=O)n(Cc3ncccc3C(F)(F)F)c2c1 [142A, 3-(1-(2-Fluoro-6-methylphenyl)piperidin-4-yl)-7-methyl-1-((3-(trifluoromethyl)pyridin-2-yl)methyl)quinoxalin-2(1H)-one] | > 100 | Non-Active | –
14 | Cc1cnc2cc([C@H]3CC[C@H](c4c(C)ccnc4F)CC3)c(=O)n(Cc3nccnc3C(F)(F)F)c2n1 [143A, 7-((1r,4r)-4-(2-Fluoro-4-methylpyridin-3-yl)cyclohexyl)-3-methyl-5-((3-(trifluoromethyl)pyrazin-2-yl)methyl)pyrido[2,3-b]pyrazin-6(5H)-one] | < 0.5 | Non-Active | –
15 | Cc1cnc2cc([C@H]3CC[C@@H](c4c(C)ccnc4F)CC3)c(=O)n(Cc3nccnc3C(F)(F)F)c2n1 [143B, 7-((1s,4s)-4-(2-Fluoro-4-methylpyridin-3-yl)cyclohexyl)-3-methyl-5-((3-(trifluoromethyl)pyrazin-2-yl)methyl)pyrido[2,3-b]pyrazin-6(5H)-one] | 0.5 to 5 | Non-Active | –
16 | Cc1ccc2nc(C3CCN(c4c(C)cccc4F)CC3)c(=O)n(Cc3nccnc3C(F)(F)F)c2c1 [144A, 3-(1-(2-Fluoro-6-methylphenyl)piperidin-4-yl)-7-methyl-1-((3-(trifluoromethyl)pyrazin-2-yl)methyl)quinoxalin-2(1H)-one] | > 100 | – | Non-Active at 10 μM
17 | Cc1ccc2c(c1)nc(C1CCN(c3c(C)cccc3F)CC1)c(=O)n2Cc1nccnc1C(F)(F)F [144B, 3-(1-(2-Fluoro-6-methylphenyl)piperidin-4-yl)-6-methyl-1-((3-(trifluoromethyl)pyrazin-2-yl)methyl)quinoxalin-2(1H)-one] | > 100 | – | Non-Active at 10 μM
18 | Cc1cnc2cc([C@H]3CC[C@@H](c4c(C)ccnc4F)CC3)c(=O)n(Cc3nccnc3C(F)F)c2n1 [146A, 5-((3-(Difluoromethyl)pyrazin-2-yl)methyl)-7-((1s,4s)-4-(2-fluoro-4-methylpyridin-3-yl)cyclohexyl)-3-methylpyrido[2,3-b]pyrazin-6(5H)-one] | 5 to 100 | – | Non-Active at 10 μM
19 | Cc1cnc2cc([C@H]3CC[C@H](c4c(C)ccnc4F)CC3)c(=O)n(Cc3nccnc3C(F)F)c2n1 [146B, 5-((3-(Difluoromethyl)pyrazin-2-yl)methyl)-7-((1r,4r)-4-(2-fluoro-4-methylpyridin-3-yl)cyclohexyl)-3-methylpyrido[2,3-b]pyrazin-6(5H)-one] | 0.5 to 5 | – | Non-Active at 10 μM
20 | Cc1cnc2cc([C@H]3CC[C@@H](c4c(C)ccnc4F)CC3)c(=O)n(Cc3ncccc3C(F)(F)F)c2n1 [147A, 7-((1s,4s)-4-(2-Fluoro-4-methylpyridin-3-yl)cyclohexyl)-3-methyl-5-((3-(trifluoromethyl)pyridin-2-yl)methyl)pyrido[2,3-b]pyrazin-6(5H)-one] | < 0.5 | – | Non-Active at 10 μM
21 | Cc1cnc2cc([C@H]3CC[C@H](c4c(C)ccnc4F)CC3)c(=O)n(Cc3ncccc3C(F)(F)F)c2n1 [147B, 7-((1r,4r)-4-(2-Fluoro-4-methylpyridin-3-yl)cyclohexyl)-3-methyl-5-((3-(trifluoromethyl)pyridin-2-yl)methyl)pyrido[2,3-b]pyrazin-6(5H)-one] | < 0.5 | Non-Active | –
22 | Cc1cnc2cc([C@H]3CC[C@@H](c4c(C)cccc4F)CC3)c(=O)n(Cc3nccnc3C(F)F)c2n1 [148A, 5-((3-(Difluoromethyl)pyrazin-2-yl)methyl)-7-((1s,4s)-4-(2-fluoro-6-methylphenyl)cyclohexyl)-3-methylpyrido[2,3-b]pyrazin-6(5H)-one] | 0.5 to 5 | Non-Active | –
23 | Cc1cnc2cc([C@H]3CC[C@H](c4c(C)cccc4F)CC3)c(=O)n(Cc3nccnc3C(F)F)c2n1 [148B, 5-((3-(Difluoromethyl)pyrazin-2-yl)methyl)-7-((1r,4r)-4-(2-fluoro-6-methylphenyl)cyclohexyl)-3-methylpyrido[2,3-b]pyrazin-6(5H)-one] | < 0.5 | Non-Active | –
